“And” between values parts separate entries of the source, which are not always exact repeats. Equal values may be shown once. Read-outs that look alike come from different tables or passages of the source.
Tests used:
[1] = test system: extracellular T. gondii tachyzoites expressing TgATP4^G419S-HA; test: [Na+]cyt measurement (SBFI), Na+ dysregulation; assay type: cell-based, Toxoplasma gondii; design: Final [Na+]cyt reached: unit not given here; conditions: TgATP4G419S-HA; for IC50: Toxoplasma gondii
Experimental: (§1) The ratio of the fluorescence intensity recorded at 340 nm and 380 nm (with an emission wavelength of 515 nm) was converted to [Na^+]cyt using a calibration procedure that entailed suspending parasites in solutions of varying [Na^+] containing ionophores. Fluorescence measurements and calibrations were performed at 37 °C, either with individual 1 mL suspensions using a PerkinElmer LS 50B fluorescence spectrometer (for resting [Na^+]cyt measurements for which the data are shown in Supplementary Fig. 7) or in 96-well plates using a Tecan Infinite M1000 PRO plate reader with i-control (version 1.12) software (all other [Na^+]cyt measurements).

[2] = test system: extracellular T. gondii tachyzoites expressing TgATP4^WT; test: [Na+]cyt measurement (SBFI), Na+ dysregulation; assay type: cell-based, Toxoplasma gondii; design: Final [Na+]cyt reached: unit not given here
Experimental: as §1

[3] = test system: Dd2-B2 parasites; test: P. falciparum proliferation assay (72 h, flow cytometry, SYBR Green I/MitoTracker); assay type: cell-based; conditions: Plasmodium falciparum, DD2, read-out: IC50 value
Experimental: (§2) Two types of parasite proliferation assays were employed in this study, with both yielding highly consistent results. For the NF54-based lines and Dd2-B2-PfATP4^G358S and its parent, assays were initiated with cultures containing predominantly ring-stage parasites with a parasitaemia of 0.3% and a haematocrit of 1%. All assays using NF54 were performed in culture media containing 10% O + human serum. The duration of the assays was 72 h and the concentration of DMSO was <0.5% (v/v). Serial dilutions of the test compounds were performed using a Tecan D300e digital dispenser, with parasite cultures added manually. Parasite survival was assessed by flow cytometry on an Intellicyt iQue3 (Essen Bioscience), with 1× SYBR Green I (Invitrogen) and 200 nM MitoTracker Deep Red FM (Invitrogen) used to stain the nucleus and the mitochondria in live parasites, respectively. The gating strategy used to quantify parasite survival, performed using FlowJo version 10 (FlowJo LLC.), is illustrated in Supplementary Fig. 9. IC50 and IC90 values were calculated by linear interpolation of the dose-response data.

[4] = test system: Dd2-B2-PfATP4^G358S parasites; test: as above; assay type: cell-based; conditions: Plasmodium falciparum; Dd2-B2-PfATP4G358S; mean ± SEM
Experimental: as §2

[5] = test system: isolated Dd2-Polδ P. falciparum trophozoites; test: [Na+]cyt measurement (SBFI), Na+ dysregulation; assay type: cell-based, Plasmodium falciparum; design: Final [Na+]cyt reached: unit not given here; conditions: Dd2-Polδ, MEAN
Experimental: as §1

Structure (SMILES): N#Cc1cc(NC(=O)[C@H]2c3ccccc3C(=O)N(CC(F)(F)F)[C@@H]2c2cccnc2)ccc1F [(+)-SJ733]
- Final [Na+]cyt reached ([1]; [(+)-SJ733] 19.5 nM, MEAN): 11.4
- Final [Na+]cyt reached ([1]; [(+)-SJ733] 39.1 nM, MEAN): 14.1
- Final [Na+]cyt reached ([1]; [(+)-SJ733] 39.1 nM, single experiments): 15.8 and 12.1 and 14.4
- Final [Na+]cyt reached ([1]; [(+)-SJ733] 78.1 nM, MEAN): 14.7
- Final [Na+]cyt reached ([1]; [(+)-SJ733] 78.1 nM, single experiments): 18.4 and 12.6 and 13.2
- Final [Na+]cyt reached ([1]; [(+)-SJ733] 156.3 nM, MEAN): 13.7
- Final [Na+]cyt reached ([1]; [(+)-SJ733] 156.3 nM, single experiments): 14.7 and 11.2 and 15.2
- Final [Na+]cyt reached ([1]; [(+)-SJ733] 312.5 nM, MEAN): 13.9
- Final [Na+]cyt reached ([1]; [(+)-SJ733] 312.5 nM, single experiments): 15.6 and 11.4 and 14.7
- Final [Na+]cyt reached ([1]; [(+)-SJ733] 625 nM, MEAN): 13.0
- Final [Na+]cyt reached ([1]; [(+)-SJ733] 625 nM, single experiments): 14.4 and 12.2 and 12.5
- Final [Na+]cyt reached ([1]; [(+)-SJ733] 2500 nM, MEAN): 13.7
- Final [Na+]cyt reached ([1]; [(+)-SJ733] 2500 nM, single experiments): 15.4 and 12.6 and 13.0
- Final [Na+]cyt reached ([1]; [(+)-SJ733] 5000 nM, MEAN): 13.4
- Final [Na+]cyt reached ([1]; [(+)-SJ733] 5000 nM, single experiments): 14.6 and 12.4 and 13.1
- Final [Na+]cyt reached ([1]; [(+)-SJ733] 10000 nM, MEAN): 12.1
- Final [Na+]cyt reached ([1]; [(+)-SJ733] 10000 nM, single experiments): 13.0 and 11.9 and 11.5
- Final [Na+]cyt reached ([1]; [(+)-SJ733] 20000 nM, MEAN): 12.6
- Final [Na+]cyt reached ([1]; [(+)-SJ733] 20000 nM, single experiments): 13.7 and 11.8 and 12.3
- Final [Na+]cyt reached ([1]; [(+)-SJ733] 40000 nM, MEAN): 11.6
- Final [Na+]cyt reached ([1]; [(+)-SJ733] 40000 nM, single experiments): 12.7 and 10.4 and 11.7
- IC50 ([1]; 1.5 h, ~90 min exposure, 37 °C, pH 7.1, read-out: IC50 for Na+ dysregulation): > 40000 nM
- IC50 ([1]; MEAN, source data of Table 1 (nM there), read-out: IC50 for Na+ dysregulation, MEAN): > 40000 nM
- IC50 ([1]; single experiments, source data of Table 1 (nM there), read-out: IC50 for Na+ dysregulation): > 40000 nM
- IC50 ([2]; Toxoplasma gondii, 1.5 h, pH 7.1, WT T. gondii (TgATP4WT), ~90 min exposure, 37 °C, pH 7.1, mean ± SEM, read-out: IC50 for Na+ dysregulation): 5040 ± 572 nM
- IC50 ([2]; Toxoplasma gondii, WT T. gondii, MEAN, source data of Table 1 (nM there), read-out: IC50 for Na+ dysregulation, MEAN): 5040 nM
- IC50 ([2]; Toxoplasma gondii, WT T. gondii, single experiments, source data of Table 1 (nM there), read-out: IC50 for Na+ dysregulation): 4900 nM
- Final [Na+]cyt reached ([2]; WT T. gondii, [(+)-SJ733] 19.5 nM, MEAN): 11.8
- Final [Na+]cyt reached ([2]; WT T. gondii, [(+)-SJ733] 39.1 nM, MEAN): 11.7
- Final [Na+]cyt reached ([2]; WT T. gondii, [(+)-SJ733] 78.1 nM, MEAN): 12.4
- Final [Na+]cyt reached ([2]; WT T. gondii, [(+)-SJ733] 156.3 nM, MEAN): 13.8
- Final [Na+]cyt reached ([2]; WT T. gondii, [(+)-SJ733] 312.5 nM, MEAN): 15.1
- Final [Na+]cyt reached ([2]; WT T. gondii, [(+)-SJ733] 625 nM, MEAN): 18.3
- Final [Na+]cyt reached ([2]; WT T. gondii, [(+)-SJ733] 2500 nM, MEAN): 32.1
- Final [Na+]cyt reached ([2]; WT T. gondii, [(+)-SJ733] 2500 nM, single experiments): 21.7 and 37.9 and 34.1 and 34.6
- Final [Na+]cyt reached ([2]; WT T. gondii, [(+)-SJ733] 5000 nM, MEAN): 48.9
- Final [Na+]cyt reached ([2]; WT T. gondii, [(+)-SJ733] 5000 nM, single experiments): 41.9 and 51.4 and 51.0
- Final [Na+]cyt reached ([2]; WT T. gondii, [(+)-SJ733] 10000 nM, MEAN): 65.1
- Final [Na+]cyt reached ([2]; WT T. gondii, [(+)-SJ733] 10000 nM, single experiments): 65.8 and 64.6 and 71.3 and 58.7
- Final [Na+]cyt reached ([2]; WT T. gondii, [(+)-SJ733] 20000 nM, MEAN): 76.4
- Final [Na+]cyt reached ([2]; WT T. gondii, [(+)-SJ733] 20000 nM, single experiments): 74.3 and 76.4 and 85.9 and 69.1
- Final [Na+]cyt reached ([2]; WT T. gondii, [(+)-SJ733] 40000 nM, MEAN): 81.2
- Final [Na+]cyt reached ([2]; WT T. gondii, [(+)-SJ733] 40000 nM, single experiments): 81.0 and 95.3 and 67.2
- IC50 ([2]; WT T. gondii, single experiments, source data of Table 1 (nM there), read-out: IC50 for Na+ dysregulation): 4780 nM and 6620 nM and 3880 nM
- IC50 [3]: 0.122 ± 0.007 µM
- IC50 [4]: 23 ± 3.2 µM
- Final [Na+]cyt reached ([5]; [(+)-SJ733] 9.8 nM): 24.0
- Final [Na+]cyt reached ([5]; [(+)-SJ733] 19.5 nM): 33.0

Source: paper PMC9525273 (Nature Communications, 2022)
